A short description of series [1]: Rat oral pharmacokinetics: bioavailability of compound 1. Particulars: for Bioavailability of 1 in Rat (% F): Table I; for Bioavailability of 1 in Rat: Table II. Format: in vivo, female CD (Charles River Sprague Dawley) rats. On the procedure: In order to study the pharmacokinetic behavior of the prodrugs of this invention, a single oral dose of a series of prodrugs as well as compound 1 was administered to female CD (Charles River Sprague Dawley) rats. Rats received each compound by oral gavage at a dose of 10 mg/kg. […]

A short description of series [2]: Equilibrium solubility in fasted state simulated intestinal fluid (SIF). It is filed as physicochemical. Particulars: fassif, thermodynamic from solid, pH = 6.8. The source says: Traditionally, prodrugs have often been used to increase the bioavailability of a drug via improvement of prodrug solubility by attaching a water-soluble moiety (the “progroup”) to a poorly water soluble parent drug (D. Fleisher, Adv. Drug Del. Rev. (1996) 19, 115-130, incorporated herein by reference).

The target of series [3] is estrogen receptor subtype alpha (Homo sapiens, UniProt P03372). The following applies: relative to estradiol; reported by Weatherman, Chem. and Biol. (2001) 8, 427-436; cited from earlier work.
Sequence of estrogen receptor subtype alpha (P03372 whole entry): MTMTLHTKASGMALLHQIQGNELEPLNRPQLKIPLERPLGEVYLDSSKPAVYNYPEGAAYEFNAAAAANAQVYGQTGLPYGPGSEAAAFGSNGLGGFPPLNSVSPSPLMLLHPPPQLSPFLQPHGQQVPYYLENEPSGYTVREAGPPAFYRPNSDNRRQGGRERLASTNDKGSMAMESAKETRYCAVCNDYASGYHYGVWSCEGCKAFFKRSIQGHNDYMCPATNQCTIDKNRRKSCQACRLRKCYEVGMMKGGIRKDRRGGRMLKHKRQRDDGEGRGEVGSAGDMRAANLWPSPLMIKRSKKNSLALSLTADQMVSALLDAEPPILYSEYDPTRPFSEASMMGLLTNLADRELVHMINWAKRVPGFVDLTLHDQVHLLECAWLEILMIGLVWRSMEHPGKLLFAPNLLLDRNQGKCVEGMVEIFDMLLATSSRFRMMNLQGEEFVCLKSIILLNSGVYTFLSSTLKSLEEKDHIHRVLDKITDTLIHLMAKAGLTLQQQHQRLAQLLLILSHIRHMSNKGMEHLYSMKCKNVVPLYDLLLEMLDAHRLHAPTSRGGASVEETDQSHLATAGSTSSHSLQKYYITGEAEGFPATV
Series [4] addresses estrogen receptor subtype beta (Homo sapiens, UniProt Q92731). Particulars: relative to estradiol; reported by Weatherman, Chem. and Biol. (2001) 8, 427-436; cited from earlier work.
Where [5] appears, read: single oral gavage 10 mg/kg, suspension in aqueous 0.5% HPMC and 0.1% polysorbate 80 (Tween 80).
Setting [6] is: oral, suspension in aqueous 0.5% HPMC and 0.1% polysorbate 80 (Tween 80).

Values after ≈ are worked out from the molar mass of the structure shown. Values joined by “and” are separate entries in the source; they are usually repeats but may differ in a detail not shown here. Equal entries are not always repeated. Structures can show the parent of a compound that is named as a salt. A value given as a limit tells only on which side of the number the result lay.

Consider 22 compounds from US7442833B2, “Triphenylethylene compounds as selective estrogen receptor modulators” (SmithKline Beecham Corporation, priority 2003, dated 2008).

Sequence of estrogen receptor subtype beta (Q92731 whole entry): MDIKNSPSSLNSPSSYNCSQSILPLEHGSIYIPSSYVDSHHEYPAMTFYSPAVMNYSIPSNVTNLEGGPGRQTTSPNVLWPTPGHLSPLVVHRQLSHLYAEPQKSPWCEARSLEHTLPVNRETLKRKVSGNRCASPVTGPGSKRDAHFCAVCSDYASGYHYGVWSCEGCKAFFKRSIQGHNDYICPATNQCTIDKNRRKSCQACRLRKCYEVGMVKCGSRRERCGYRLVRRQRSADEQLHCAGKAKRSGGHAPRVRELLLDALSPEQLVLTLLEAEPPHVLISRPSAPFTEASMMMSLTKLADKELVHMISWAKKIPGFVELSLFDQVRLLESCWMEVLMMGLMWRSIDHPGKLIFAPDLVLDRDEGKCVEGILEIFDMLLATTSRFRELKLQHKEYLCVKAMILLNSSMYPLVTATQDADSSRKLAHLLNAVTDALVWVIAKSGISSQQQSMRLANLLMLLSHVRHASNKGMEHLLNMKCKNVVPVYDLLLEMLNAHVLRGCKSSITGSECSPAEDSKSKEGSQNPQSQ

In the case of `CC/C(=C(\c1ccc(/C=C/C(=O)O)cc1)c1ccc(OC(=O)CN2CCN(C)CC2)cc1)c1ccccc1` [Compound 34, (2E)-3-{4-[(1Z)-1-(4-{[(4-methylpiperazin-1-yl)acetyl]oxy}phenyl)-2-phenylbut-1-enyl]phenyl}prop-2-enoic acid], in series [1] (setting [5]), the “Bioavailability of 1 in Rat (% F)” value amounted to 13.4 % F.

For the compound `CC/C(=C(\c1ccc(/C=C/C(=O)O)cc1)c1ccc(OC(=O)CN2CCOCC2)cc1)c1ccccc1` [Compound 31, (2E)-3-[4-((1Z)-1-{4-[(morpholin-4-ylacetyl)oxy]phenyl}-2-phenylbut-1-enyl)phenyl]prop-2-enoic acid], the “Bioavailability of 1 in Rat (% F)” value in series [1] (setting [5]) was 21.3 % F.

`CC/C(=C(\c1ccc(/C=C/C(=O)O)cc1)c1ccc(OC(=O)OC)cc1)c1ccccc1` [Compound 40, (2E)-3-[4-((1Z)-1-{4-[(Methoxycarbonyl)oxy]phenyl}-2-phenyl-1-butenyl)phenyl]-2-propenoic acid] returned a melting point of 140 to 142 °C. Also, the “Bioavailability of 1 in Rat (% F)” value in series [1] (setting [5]) was 21.9 % F.

As for `CC/C(=C(\c1ccc(/C=C/C(=O)O)cc1)c1ccc(OP(=O)(O)O)cc1)c1ccccc1` [Compound 35, (2E)-3-(4-{(1Z)-2-Phenyl-1-[4-(phosphonooxy)phenyl]-1-butenyl}phenyl)-2-propenoic acid], the melting point lay in the range of 181 to 183 °C. Further, in series [1] (setting [5]), the “Bioavailability of 1 in Rat (% F)” value came to 37.0 % F. Further, in series [1] (setting [6]), the “Bioavailability of 1 in Rat” value is given as 37.0 % F. In series [2], this compound returned a thermodynamic solubility of more than 1000 µg/mL.

For `CCOC(=O)Oc1ccc(/C(=C(/CC)c2ccccc2)c2ccc(/C=C/C(=O)O)cc2)cc1` [Compound 37, (2E)-3-[4-((1Z)-1-{4-[(Ethoxycarbonyl)oxy]phenyl}-2-phenyl-1-butenyl)phenyl]-2-propenoic acid], the melting point was in the range of 135 to 136 °C. Also, in series [1] (setting [5]), the “Bioavailability of 1 in Rat (% F)” value is 43.2 % F.

In turn, `CC/C(=C(\c1ccc(/C=C/C(=O)O)cc1)c1ccc(OC(=O)c2ccco2)cc1)c1ccccc1` [Compound 22, (2E)-3-(4-{(1Z)-1-[4-(2-Furoyloxy)phenyl]-2-phenyl-1-butenyl}phenyl)-2-propenoic acid] showed a melting point of 170 to 172 °C. The “Bioavailability of 1 in Rat (% F)” value in series [1] (setting [5]) worked out at 16.9 % F.

In the case of `CC/C(=C(/c1ccc(O)cc1)c1ccc(/C=C/C(=O)O)cc1)c1ccccc1` [Compound 1, (2E)-3-{4-[(1Z)-1-(4-Hydroxyphenyl)-2-phenylbut-1-enyl]phenyl}prop-2-enoic acid], the “Bioavailability of 1 in Rat (% F)” value in series [1] (oral, solution in aqueous 20% hydroxypropoylcyclodextrin) was 29.0 % F; in series [1] (setting [5]) it was 5.7 % F. In addition, the “Bioavailability of 1 in Rat” value in series [1] (setting [6]) is given as 5.7 % F. Besides, in series [2], the solubility (thermodynamic) was 23 µg/mL (≈ 62.1 µM). For the same compound, the “binding affinity to estrogen receptor subtype alpha, % that of estradiol” value in series [3] is on record as 2%. The “binding affinity to estrogen receptor subtype beta, % that of estradiol” value in series [4] was 1%.

Regarding `CC/C(=C(\c1ccc(/C=C/C(=O)O)cc1)c1ccc(OC(=O)CCC(F)(F)F)cc1)c1ccccc1` [Compound 27, (2E)-3-[4-((1Z)-2-phenyl-1-{4-[(4,4,4-trifluorobutanoyl)oxy]phenyl}but-1-enyl)phenyl]prop-2-enoic acid], in series [1] (setting [5]), the “Bioavailability of 1 in Rat (% F)” value was 28.9 % F.

With `CC/C(=C(\c1ccc(/C=C/C(=O)O)cc1)c1ccc(OC(=O)CN(C)C)cc1)c1ccccc1` [Compound 23, (2E)-3-[4-((1Z)-1-{4-[(N,N-dimethylglycyl)oxy]phenyl}-2-phenylbut-1-enyl)phenyl]prop-2-enoic acid], in series [1] (setting [5]), the “Bioavailability of 1 in Rat (% F)” value was 38.3 % F. In addition, the “Bioavailability of 1 in Rat” value in series [1] (setting [6]) stood at 38.3 % F. This compound also yielded a solubility (thermodynamic) in series [2] of 15 µg/mL (≈ 32.9 µM).

Turning to `CC/C(=C(\c1ccc(/C=C/C(=O)O)cc1)c1ccc(OC(=O)c2cccs2)cc1)c1ccccc1` (as salt: salt) [Compound 25, (2E)-3-[4-((1Z)-2-phenyl-1-{4-[(thien-2-ylcarbonyl)oxy]phenyl}but-1-enyl)phenyl]prop-2-enoic acid], the melting point lay within 175 to 176 °C.

In turn, `CC/C(=C(\c1ccc(/C=C/C(=O)O)cc1)c1ccc(OC(=O)CN(C)C)cc1)c1ccccc1` (as salt: salt) [Compound 23, (2E)-3-[4-((1Z)-1-{4-[(N,N-dimethylglycyl)oxy]phenyl}-2-phenylbut-1-enyl)phenyl]prop-2-enoic acid] came in with a melting point of 206 to 208 °C.

`CC/C(=C(\c1ccc(/C=C/C(=O)O)cc1)c1ccc(OC(=O)c2ccccc2)cc1)c1ccccc1` [Compound 18, (2E)-3-(4-{(1Z)-1-[4-(benzoyloxy)phenyl]-2-phenylbut-1-enyl}phenyl)prop-2-enoic acid]: the “Bioavailability of 1 in Rat (% F)” value in series [1] (setting [5]) is given as 12.3 % F.

On to `CC/C(=C(\c1ccc(/C=C/C(=O)O)cc1)c1ccc(OC(=O)C2CCCCC2)cc1)c1ccccc1` [Compound 29, (2E)-3-[4-((1Z)-1-{4-[(cyclohexylcarbonyl)oxy]phenyl}-2-phenylbut-1-enyl)phenyl]prop-2-enoic acid], for which the “Bioavailability of 1 in Rat (% F)” value in series [1] (setting [5]) is reported as 3.3 % F.

`CC/C(=C(\c1ccc(/C=C/C(=O)O)cc1)c1ccc(OC(C)=O)cc1)c1ccccc1` [Compound 20, (2E)-3-(4-{(1Z)-1-[4-(acetyloxy)phenyl]-2-phenylbut-1-enyl}phenyl)prop-2-enoic acid]: in series [1] (setting [5]), the “Bioavailability of 1 in Rat (% F)” value worked out at 13.5 % F. The “Bioavailability of 1 in Rat” value in series [1] (setting [6]) is 13.5 % F. The compound also registered a thermodynamic solubility in series [2] of 129 µg/mL (≈ 313 µM).

For the compound `CC/C(=C(\c1ccc(/C=C/C(=O)O)cc1)c1ccc(OC(=O)c2ccno2)cc1)c1ccccc1` [Compound 24, (2E)-3-[4-((1Z)-1-{4-[(5-Isoxazolylcarbonyl)oxy]phenyl}-2-phenyl-1-butenyl)phenyl]-2-propenoic acid], the melting point is 141 to 142 °C. Further, the “Bioavailability of 1 in Rat (% F)” value in series [1] (setting [5]) came out at 43.2 % F.

The compound `CC/C(=C(\c1ccc(/C=C/C(=O)O)cc1)c1ccc(OC(=O)CCOC)cc1)c1ccccc1` [Compound 26] had a melting point of 190 to 191 °C. For the same compound, the “Bioavailability of 1 in Rat (% F)” value in series [1] (setting [5]) was determined as 52.4 % F.

Take `CC/C(=C(\c1ccc(/C=C/C(=O)O)cc1)c1ccc(OC(=O)CCC(F)(F)F)cc1)c1ccccc1` (as salt: salt) [Compound 27, (2E)-3-[4-((1Z)-2-phenyl-1-{4-[(4,4,4-trifluorobutanoyl)oxy]phenyl}but-1-enyl)phenyl]prop-2-enoic acid]: the melting point lay in the range of 162 to 163 °C.

As to `CC/C(=C(\c1ccc(/C=C/C(=O)O)cc1)c1ccc(OC(=O)c2cccs2)cc1)c1ccccc1` [Compound 25, (2E)-3-[4-((1Z)-2-phenyl-1-{4-[(thien-2-ylcarbonyl)oxy]phenyl}but-1-enyl)phenyl]prop-2-enoic acid], the “Bioavailability of 1 in Rat (% F)” value in series [1] (setting [5]) is on record as 50.9 % F.

On to `CC/C(=C(\c1ccc(/C=C/C(=O)O)cc1)c1ccc(OC(=O)C(C)(C)C)cc1)c1ccccc1` [Compound 28, (2E)-3-[4-((1Z)-1-{4-[(2,2-dimethylpropanoyl)oxy]phenyl}-2-phenylbut-1-enyl)phenyl]prop-2-enoic acid], for which the “Bioavailability of 1 in Rat (% F)” value in series [1] (setting [5]) is 3.5 % F.

Regarding `CC/C(=C(\c1ccc(/C=C/C(=O)O)cc1)c1ccc(OC(=O)CN2CCCCC2)cc1)c1ccccc1` [Compound 33, (2E)-3-[4-((1Z)-2-phenyl-1-{4-[(piperidin-1-ylacetyl)oxy]phenyl}but-1-enyl)phenyl]prop-2-enoic acid], in series [1] (setting [5]), the “Bioavailability of 1 in Rat (% F)” value amounted to 13.9 % F.

With `CCCC(=O)Oc1ccc(/C(=C(/CC)c2ccccc2)c2ccc(/C=C/C(=O)O)cc2)cc1` [Compound 21, (2E)-3-(4-{(1Z)-1-[4-(butyryloxy)phenyl]-2-phenylbut-1-enyl}phenyl)prop-2-enoic acid], the “Bioavailability of 1 in Rat (% F)” value in series [1] (setting [5]) amounted to 18.2 % F. In addition, the “Bioavailability of 1 in Rat” value in series [1] (setting [6]) stood at 18.2 % F. Besides, the thermodynamic solubility in series [2] is 21 µg/mL (≈ 47.7 µM).

Take `CCC(=O)Oc1ccc(/C(=C(/CC)c2ccccc2)c2ccc(/C=C/C(=O)O)cc2)cc1` [Compound 7, (2E)-3-(4-{(1Z)-2-phenyl-1-[4-(propionyloxy)phenyl]but-1-enyl}phenyl)prop-2-enoic acid]: the melting point was 155 to 157 °C and 158 to 160 °C. Moreover, the “Bioavailability of 1 in Rat (% F)” value in series [1] (setting [5]) is on record as 86.6 % F. Further, the “Bioavailability of 1 in Rat” value in series [1] (setting [6]) is 86.6 % F. The compound also came in with a thermodynamic solubility in series [2] of 61 µg/mL (≈ 143 µM).

A word on the melting point: it is the temperature of the solid-liquid transition. In general, solubility (thermodynamic) refers to the concentration in solution at equilibrium with solid.
